Here are results for 27 molecules from patent US10710996B2, “Pyrido-azaheterecydic compound and preparation method and use thereof” (SHANGHAI INSTITUTE OF MATERIA MEDICA, CHINESE ACADEMY OF …, priority 2015, dated 2020).

For one assay, the target named is T1, c-Met kinase (Homo sapiens, UniProt P08581).
T1 construct: c-Met kinase domain recombinant protein diluted with 49 μL of the reaction buffer was added
T1 sequence (P08581 1078-1345 limits assumed): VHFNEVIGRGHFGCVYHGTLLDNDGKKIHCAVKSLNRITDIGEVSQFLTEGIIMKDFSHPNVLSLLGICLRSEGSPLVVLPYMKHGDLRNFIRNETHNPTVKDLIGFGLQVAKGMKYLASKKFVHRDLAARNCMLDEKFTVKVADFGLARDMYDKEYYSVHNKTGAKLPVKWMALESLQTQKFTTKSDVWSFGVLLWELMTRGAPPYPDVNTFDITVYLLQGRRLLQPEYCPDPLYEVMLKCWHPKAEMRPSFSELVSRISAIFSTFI
In words: Inhibitory effect on c-Met kinase activity at molecular level (ELISA).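 Also: recombinant c-Met kinase domain with 5 µM ATP, 1 h at 37 °C, substrate phosphorylation detected by anti-phosphotyrosine PY99 ELISA at 490 nm versus DMSO negative control, ATP-free wells as blank.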
Conditions: not given
The format is biochemical. For orientation: ELISA stands for enzyme-linked immunosorbent assay.
Usually IC50 stands for the concentration that gives 50% inhibition. `O=C(Nc1ccc(F)cc1)C1(C(=O)Nc2ccc(Oc3ccnc4cc(N5CCOCC5)ncc34)c(F)c2)CC1` [Compound 27S, N-(3-fluoro-4-((7-morpholino-1,6-naphthyridin-4-yl)oxy)phenyl)-N-(4-fluorophenyl)cyclopropyl-1,1-dicarboxamide]: the IC50 was in the range of 10 to 100 nM.
On the same count and under the same terms, the value for `O=C(Nc1ccc(F)cc1)C1(C(=O)Nc2ccc(Oc3ccnc4cc(N5CCC(N6CCOCC6)CC5)ncc34)c(F)c2)CC1` [Compound 28S, N-(3-fluoro-4-((7-(4-morpholinopiperidin-1-yl)--naphthyridin-4-yl)oxy)phenyl)-N-(4-fluorophenyl)cyclopropyl-1,1-dicarboxamide] was 10 to 100 nM.
The same measure, in the same setting: the value for `CCN1CCC(Nc2cc3nccc(Oc4ccc(NC(=O)c5ccnn(-c6ccc(F)cc6)c5=O)cc4F)c3cn2)C(F)C1` (stereo not drawn) [Compound 35S, N-(4-((7-((1-ethyl-3-fluoropiperidin-4-yl)amino)-1,6-naphthyridin-4-yl)oxy)-3-fluorophenyl)-2-(4-fluorophenyl)-3-oxo-2,3-dihydropyridazine-4-carboxamide] was 10 to 100 nM; that for `COC(=O)c1cccn(-c2ccc(Oc3ccnc4cc(OCCN5CCOCC5)ncc34)c(F)c2)c1=O` [Compound 17S, methyl 1-(3-fluoro-4-((7-(2-morpholinoethoxy)-1,6-naphthyridin-4-yl)oxy)phenyl)-2-oxo-1,2-dihydropyridine-3-carboxylate] was 1 to 10 nM; that for `CN(C(=O)C1(C(=O)Nc2ccc(Oc3ccnc4cc(OCCN5CCOCC5)ncc34)c(F)c2)CC1)c1ccc(F)cc1` [Compound 14S, N-(3-fluoro-4-((7-(2-morpholinoethoxy)-1,6-naphthyridin-4-yl)oxy)phenyl)-N-(4-fluorophenyl)-N-methylcyclopropyl-1,1-dicarboxamide] was 100 to 1000 nM.
For the molecule `O=C(Nc1ccc(F)cc1)C1(C(=O)Nc2ccc(Oc3ccnc4nc(OCCCN5CCOCC5)cnc34)c(F)c2)CC1` [Compound 61S, N-(3-fluoro-4-((3-(3-morpholinopropoxy)pyrido[2,3-b]pyrazin-8-yl)oxy)phenyl)-N-(4-fluorophenyl)cyclopropyl-1,1-dicarboxamide], the IC50 lay within 10 to 100 nM.
In turn, `O=C(Nc1ccc(F)cc1)c1cccn(-c2ccc(Oc3ccnc4cc(OCCN5CCOCC5)ncc34)c(F)c2)c1=O` [Compound 16S, 1-(3-fluoro-4-((7-(2-morpholinoethoxy)-1,6-naphthyridin-4-yl)oxy)phenyl)-N-(4-fluorophenyl)-2-oxo-1,2-dihydropyridine-3-carboxamide] registered an IC50 of 10 to 100 nM.
On the same count and under the same terms, the value for `O=C(Nc1ccc(F)cc1)C1(C(=O)Nc2ccc(Oc3ccnc4cc(OCCn5ccnc5)ncc34)c(F)c2)CC1` [Compound 31S, N-(4-((7-(2-(1H-imidazol-1-yl)ethoxy)-naphthyridin-4-yl)oxy)-3-fluorophenyl)-N-(4-fluorophenyl)cyclopropyl-1,1-dicarboxamide] was 10 to 100 nM; that for `O=C(Nc1ccc(F)cc1)C1(C(=O)Nc2ccc(Oc3ccnc4cc(-c5ccc(N6CCOCC6)cc5)ncc34)c(F)c2)CC1` [Compound 50S, N-(3-fluoro-4-((7-(4-morpholinophenyl)-1,6-naphthyridin-4-yl)oxy)phenyl)-N-(4-fluorophenyl)cyclopropyl-1,1-dicarboxamide] was 10 to 100 nM.
The same measure, in the same setting: the same measure for `O=C(Nc1ccc(Oc2ccnc3c(Br)c(OCCN4CCOCC4)ncc23)c(F)c1)c1c[nH]cc(-c2ccc(F)cc2)c1=O` [Compound 21S, N-(4-((8-bromo-7-(2-morpholinoethoxy)-1,6-naphthyridin-4-yl)oxy)-3-fluorophenyl)-5-(4-fluorophenyl)-4-oxo-1,4-dihydropyridine-3-carboxamide]: 10 to 100 nM; for `O=C(Nc1ccc(F)cc1)C1(C(=O)Nc2ccc(Oc3ccnc4cc(-c5ccsn5)ncc34)c(F)c2)CC1` [Compound 52S]: 100 to 1000 nM; for `O=C(Nc1ccc(F)cc1)C1(C(=O)Nc2ccc(Oc3ccnc4ncc(=O)[nH]c34)c(F)c2)CC1` [Compound 34S, N-(3-fluoro-4-((2-oxo-1,2-dihydropyrido [2,3-b]pyrazin-8-yl)oxy)phenyl)-N-(4-fluorophenyl)cyclopropyl-1,1-dicarboxamide]: 100 to 1000 nM.
Turning to `O=C(COc1cc2nccc(Oc3ccc(NC(=O)C4(C(=O)Nc5ccc(F)cc5)CC4)cc3F)c2cn1)N1CCOCC1` [Compound 36S, N-(3-fluoro-4-((7-(2-morpholino-2-acetoxy)-1,6-naphthyridin-4-yl)oxy)phenyl)-N-(4-fluorophenyl)cyclopropyl-1,1-dicarboxamide], the IC50 lay within 10 to 100 nM.
On the same count and under the same terms, the value for `O=C(Nc1ccc(F)cc1)C1(C(=O)Nc2ccc(Oc3ccnc4cc(-c5cnoc5)ncc34)c(F)c2)CC1` [Compound 51S] was 1 to 10 nM; that for `Nc1ccc(Oc2ccnc3cc(OCCN4CCOCC4)ncc23)c(F)c1` [Compound 5S] was 100 to 1000 nM.
With `O=C(Nc1ccc(F)cc1)C1(C(=O)Nc2ccc(Oc3ccnc4cc(N5CCN(Cc6ccccc6)CC5)ncc34)c(F)c2)CC1` [Compound 32S, N-(4-((7-(4-benzylpiperazin-1-yl)-naphthyridin-4-yl)oxy)-3-fluorophenyl)-N-(4-fluorophenyl)cyclopropyl-1,1-dicarboxamide], the IC50 was 10 to 100 nM.
Same read-out and setting: the same measure for `C[C@@H]1COCCN1CCOc1cc2nccc(Oc3ccc(NC(=O)C4(C(=O)Nc5ccc(F)cc5)CC4)cc3F)c2cn1` [Compound 30S, (R)-N-(3-fluoro-4-((7-(2-(3-methylmorpholino)ethoxy)-naphthyridin-4-yl)oxy)phenyl)-N-(4-fluorophenyl) cyclopropyl-1,1-dicarboxamide]: 10 to 100 nM; for `O=C(Nc1ccc(F)cc1)C1(C(=O)Nc2ccc(Oc3ccnc4[nH]c(=O)cnc34)c(F)c2)CC1` [Compound 33S, N-(3-fluoro-4-((3-oxo-3,4-dihydropyrido [2,3-b]pyrazin-8-yl)oxy)phenyl)-N-(4-fluorophenyl)cyclopropyl-1,1-dicarboxamide]: 100 to 1000 nM.
Same read-out and setting: the value for `O=C(Nc1ccc(F)cc1)C1(C(=O)Nc2ccc(Oc3ccnc4c(Br)c(OCCN5CCOCC5)ncc34)c(F)c2)CC1` [Compound 6S, N-(4-((8-bromo-7-(2-morpholinoethoxy)-1,6-naphthyridin-4-yl)oxy)-3-fluorophenyl)-N-(4-fluorophenyl) cyclopropyl-1,1-dicarboxamide] was 10 to 100 nM.
The molecule `C[C@H]1COCCN1CCOc1cc2nccc(Oc3ccc(NC(=O)C4(C(=O)Nc5ccc(F)cc5)CC4)cc3F)c2cn1` [Compound 29S, (S)-N-(3-fluoro-4-((7-(2-(3-methylmorpholino)ethoxy)-naphthyridin-4-yl)oxy)phenyl)-N-(4-fluorophenyl) cyclopropyl-1,1-dicarboxamide] registered an IC50 of 10 to 100 nM.
As to `CN1CCN(CCOc2ncc3c(Oc4ccc(NC(=O)C5(C(=O)Nc6ccc(F)cc6)CC5)cc4F)ccnc3c2Br)CC1` [Compound 10S, N-(4-((8-bromo-7-(2-(4-methylpiperazin-1-yl)ethoxy)-1,6-naphthyridin-4-yl)oxy)-3-fluorophenyl)-N-(4-fluorophenyl) cyclopropyl-1,1-dicarboxamide], the IC50 fell in the range of 10 to 100 nM.
Still for that read-out and setting: the same measure for `O=C(Nc1ccc(Oc2ccnc3c(Br)c(OCCN4CCOCC4)ncc23)c(F)c1)c1c[nH]cc(-c2ccccc2)c1=O` [Compound 19S, N-(4-((8-bromo-7-(2-morpholinoethoxy)-1,6-naphthyridin-4-yl)oxy)-3-fluorophenyl)-4-oxo-5-phenyl-1,4-dihydropyridine-3-carboxamide]: 10 to 100 nM.
The molecule `O=C(Cc1ccccc1)Nc1ccc(Oc2ccnc3c(Br)c(OCCN4CCOCC4)ncc23)c(F)c1` [Compound 18S, N-(4-((8-bromo-7-(2-morpholinoethoxy)-1,6-naphthyridin-4-yl)oxy)-3-fluorophenyl)-2-phenylacetamide] returned an IC50 of 100 to 1000 nM.
The same measure, in the same setting: the value for `Nc1ccc(Oc2ccnc3c(Br)c(OCCN4CCOCC4)ncc23)c(F)c1` [Compound 4S, 4-((8-bromo-7-(2-morpholinoethoxy)-1,6-naphthyridin-4-yl)oxy)-3-fluoroaniline] was 1000 to 10000 nM.
Still for that read-out and setting: the same measure for `Cn1cc(-c2cc3nccc(Oc4ccc(NC(=O)c5cccn(-c6ccc(F)cc6)c5=O)cc4F)c3cn2)cn1` [Compound 53S, N-(3-fluoro-4-((7-(1-methyl-1H-pyrazol-4-yl)-1,6-naphthyridin-4-yl)oxy)phenyl)-1-(4-fluorophenyl)-2-oxo-1,2-dihydropyridine-3-carboxamide]: 10 to 100 nM; for `O=C(Nc1ccc(F)cc1)C1(C(=O)Nc2ccc(Oc3ccnc4cc(-c5ccc([N+](=O)[O-])cc5)ncc34)c(F)c2)CC1` [Compound 48S, N-(3-fluoro-4-((7-(4-nitrophenyl)-1,6-naphthyridin-4-yl)oxy)phenyl)-N-(4-fluorophenyl)cyclopropyl-1,1-dicarboxamide]: 10 to 100 nM.

The subject of another assay is EBC-1 cells. In words: Inhibition of c-Met-mediated EBC-1 cell proliferation (SRB staining). The format is cell-based. The settings on record: Homo sapiens, 72 hours treatment. The method, then:
The inhibitory effect of the compounds on the growth of non-small cell cancer EBC-1 cell (a cell line in which Met is continually activated due to the amplification of MET gene, and is a Met-dependent tumor cell line) was measured by sulforhodamine B (SRB) staining assay. A certain amount of EBC-1 cells in their logarithmic growth phase were seeded in 96-well plates at 90 μL per well and cultured overnight, then 10 μL of different concentrations of compounds or solvent control were added thereto, three wells for each concentration. After treated by the compound for 72 hours, the adherent cells were removed of culture medium and fixed with 10% (w/v) trichloroacetic acid (100 μL/well) at 4° C. for 1 hr followed by rinsing with distilled water five times. After drying at room temperature, 100 μL of SRB solution (dissolved in 1% glacial acetic acid at 4 mg/mL) was added to each well to incubate and stain the cells for 15 min at room temperature, then unbound SRB was washed off with 1% glacial acetic acid for five times. After drying at room temperature, 100 μL of 10 mM Tris solution was added to each well. The optical density (OD value) at 515 nm was read on a VERSMax microplate reader. […] The experiment was repeated twice. The IC50 data was calculated as a range based on the test results of concentrations set in the initial screening test.
As for `CN1CCN(CCOc2cnc3nccc(Oc4ccc(NC(=O)C5(C(=O)Nc6ccc(F)cc6)CC5)cc4F)c3n2)CC1` [Compound 66S, N-(3-fluoro-4-((2-(2-(4-methylpiperazin-1-yl)ethoxy)pyrido[2,3-b]pyrazin-8-yl)oxy)phenyl)-N-(4-fluorophenyl) cyclopropyl-1,1-dicarboxamide], the IC50 was 1000 to 10000 nM.
